In this assay the test system is Fusarium crown rot (FCR) of wheat, Fusarium pseudograminearum G14LY24-2. Put plainly: Field effect of seed coating on controlling FCR of wheat (inoculated field disease nurseries). It counts as in vivo. To be noted: for Average disease rating: grading 0-5. As to the method: Wheat grains are soaked for 12 h, sterilized for 60 min, allowed to stand for two days, sterilized for 30-60 min, and cooled for later use. Fusarium pseudograminearum G14LY24-2 was selected on a PDA plate. After growing for three days, marginal hyphae were picked to grow on a fresh PDA plate. After three days, the hyphal pellets were plated into a wheat grain polyethylene bag with sterilized wheat grains. The hyphal pellets grew at room temperature for two weeks until the fungi grew all over wheat grains, and stored in a refrigerator at 4° C. after air-drying.
Disease nurseries were constructed in a 1:1 ratio of seed quantity to inoculum volume ratio. The inoculation was located 3-5 cm above the seed. The seeds to be sown and the inoculum were mixed first, and after mixing well, well-mixed sowing materials were sown by a planter.
Selected C. globosum strains were activated on a fresh PDA, and hyphal pellets were picked into 9 cm PDA Petri dishes. After 15 days, perithecia were ground in sterile water using a spreading rod, and ascospore suspension was controlled at about 100 mL, with a concentration of 1.0-2.0×10^7 ascospores/mL; in case of a low concentration, the suspension was centrifuged at 3,000 rpm for 5 min, dewatered, and resuspended. 75 mL of fungal suspension (approximately 1.3×10^7 ascospores/mL) was mixed with 25 mL of 4 wt % carboxymethyl cellulose salt solution into 100 mL of fungal suspension with 1% carboxymethyl cellulose salt (approximately 1.0×10^7 ascospores/mL). 100 mL of 1×10^7 ascospores/mL fungal suspension with 1% carboxymethyl cellulose salt was mixed well with 5 kg of wheat seeds. Chaetomium globosum strain 12XP1-2-3-coated seeds were rinsed and spread on a plate to count spores on the seed surface, which was 5.0-5.3×10^4 ascospores per seed. The wheat cultivar in 2018 was “Bainong 207”, the wheat cultivar in 2019 was “Aikang 58”, the control agent was 30 g/L difenoconazole, and the seeds were dressed in an agent-to-seed ratio of 1:333.
Field sampling method: At the seedling stage, the emergence rate was investigated, and the plant height, tap root length, fresh weight, dry weight, and colonization ability of C. globosum were measured; at the tillering stage, the morbidity was investigated, and the plant height, tap root length, fresh weight, dry weight, tiller number, and colonization ability of C. globosum were measured; the morbidity was investigated at the jointing stage; the white ear rate was investigated at the filling stage. The method was to investigate the number of white heads and total number of ears per 1 m2 plot and calculate the white ear rate of the plot. The diseased stem rate was investigated at the maturing stage; 20 stems were sampled at five points in each plot, a total of 100 stems for each treatment were brought back to the laboratory, and leaf sheaths were removed thoroughly to determine the disease rating.
The grading standard for adult stage was as follows: 0=no disease; 1=browning in the first node; 2=browning in the second node; 3=browning in the third node; 4=browning in the peduncle or white ears at the filling stage; and 5=diseased plant without ear bearing. The yield was determined during harvest.

Where [1] appears, read: “Aikang 58” in Wenxian in 2019, wheat filling stage.
The mark [2] stands for this setting: “Bainong 207” in Kaifeng in 2018, wheat filling stage.

As for `CC1COC(Cn2cncn2)(c2ccc(Oc3ccc(Cl)cc3)cc2Cl)O1` (stereo not drawn) [Difenoconazole, difenoconazole], under setting [1], the Disease index was found to be 9.4, the “Diseased stem rate %” value is given as 26.0% and the Average disease rating is on record as 0.5. For the same compound, under setting [2], the Disease index is reported as 12.9, the “Diseased stem rate %” value is 30.0% and the Average disease rating was found to be 0.6.

For the origin of these results see patent US11998016B2, “Use of Chaetomium globosum strain in controlling fusarium crown rot of wheat” (priority 2020, dated 2024).
